A short description of assay [1]: Inhibition of c-Met in human A549 cells by wound healing assay.
Assay [2] is described as follows: Inhibition of c-Met in human DU145 cells assessed as cell scattering.

In general, IC50 refers to the concentration at which inhibition is half-maximal. Take `COc1cc2nccc(Oc3ccc(NC(=O)N4CCN(c5ccccc5)C4=O)cc3F)c2cc1OC`: the IC50 in assay [1] and in assay [2] was 80 nM in each case.

The values are drawn from BindingDB's records for doi:10.1016/j.bmcl.2009.10.040 (Methylgene, 2009).
